Source: ChEMBL document CHEMBL4043269, “Synthesis and structure activity relationships of carbamimidoylcarbamate derivatives as novel vascular adhesion protein-1 inhibitors” (Bioorg Med Chem, 2017)

Key:
[1] = Aqueous solubility of compound in Japanese pharmacopoeia second fluid at pH 6.8 at 130 uM after 20 hrs by HPLC analysis; format: physicochemical
[2] = molecular target: T1, Amine oxidase [copper-containing] 3 (Homo sapiens, UniProt Q16853); assay: Inhibition of human VAP-1 expressed in CHO cells preincubated for 20 mins followed by [14C]-benzylamine addition measured after 1 hr by scintillation spectrometric analysis; format: cell-based
T1 sequence (Q16853 whole entry): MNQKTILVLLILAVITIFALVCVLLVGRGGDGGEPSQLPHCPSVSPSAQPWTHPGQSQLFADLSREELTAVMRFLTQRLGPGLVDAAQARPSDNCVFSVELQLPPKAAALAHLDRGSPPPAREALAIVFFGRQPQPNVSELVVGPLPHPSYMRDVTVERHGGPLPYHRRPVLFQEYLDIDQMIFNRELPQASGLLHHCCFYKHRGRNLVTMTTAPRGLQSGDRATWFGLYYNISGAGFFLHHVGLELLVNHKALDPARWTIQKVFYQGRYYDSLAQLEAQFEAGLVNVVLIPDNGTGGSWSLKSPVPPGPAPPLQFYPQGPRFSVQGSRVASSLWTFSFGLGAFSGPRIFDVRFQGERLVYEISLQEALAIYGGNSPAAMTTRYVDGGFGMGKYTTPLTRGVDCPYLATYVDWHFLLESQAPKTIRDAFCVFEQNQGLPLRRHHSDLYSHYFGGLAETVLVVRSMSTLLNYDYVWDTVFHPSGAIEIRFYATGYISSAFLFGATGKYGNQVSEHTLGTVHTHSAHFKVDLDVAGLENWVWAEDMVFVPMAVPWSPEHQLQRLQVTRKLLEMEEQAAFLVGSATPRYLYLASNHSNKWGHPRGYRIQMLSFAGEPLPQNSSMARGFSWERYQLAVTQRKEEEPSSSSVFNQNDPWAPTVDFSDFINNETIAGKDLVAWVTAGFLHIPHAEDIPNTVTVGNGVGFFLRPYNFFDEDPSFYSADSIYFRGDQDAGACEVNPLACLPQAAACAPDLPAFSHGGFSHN

[3] = molecular target: T2, CYP1A2 (Homo sapiens, UniProt P05177); assay: Inhibition of CYP1A2 in human liver microsomes using phenacetin as substrate assessed as residual activity at 5 uM after 20 mins by HPLC analysis; format: ADME; conditions: probe phenacetin, read-out: Activity
T2 sequence (P05177 whole entry): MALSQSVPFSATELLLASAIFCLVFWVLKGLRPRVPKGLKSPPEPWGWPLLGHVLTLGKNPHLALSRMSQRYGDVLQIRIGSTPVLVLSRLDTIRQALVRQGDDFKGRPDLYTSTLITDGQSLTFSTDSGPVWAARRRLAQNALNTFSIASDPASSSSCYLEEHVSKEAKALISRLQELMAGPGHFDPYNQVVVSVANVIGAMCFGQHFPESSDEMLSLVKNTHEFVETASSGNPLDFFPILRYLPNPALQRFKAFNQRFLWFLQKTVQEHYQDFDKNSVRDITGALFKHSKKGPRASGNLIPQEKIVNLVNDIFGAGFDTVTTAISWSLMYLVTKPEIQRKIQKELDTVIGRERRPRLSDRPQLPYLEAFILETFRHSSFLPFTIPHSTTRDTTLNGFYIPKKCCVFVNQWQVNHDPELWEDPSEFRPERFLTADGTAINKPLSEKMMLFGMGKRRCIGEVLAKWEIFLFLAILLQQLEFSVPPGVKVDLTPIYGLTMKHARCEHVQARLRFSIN

[4] = Stability in Wistar rat plasma assessed as parent compound remaining at 2 uM after 6 hrs by LC-MS/MS analysis relative to initial concentration; format: ADME, cell-free; conditions: read-out: Stability
[5] = molecular target: CYP3A4 (Homo sapiens, UniProt P08684); assay: Inhibition of CYP3A4 in human liver microsomes using midazolam as substrate assessed as residual activity at 5 uM after 20 mins by HPLC analysis; format: ADME; conditions: probe midazolam, read-out: Activity
Sequence of CYP3A4 (P08684 whole entry): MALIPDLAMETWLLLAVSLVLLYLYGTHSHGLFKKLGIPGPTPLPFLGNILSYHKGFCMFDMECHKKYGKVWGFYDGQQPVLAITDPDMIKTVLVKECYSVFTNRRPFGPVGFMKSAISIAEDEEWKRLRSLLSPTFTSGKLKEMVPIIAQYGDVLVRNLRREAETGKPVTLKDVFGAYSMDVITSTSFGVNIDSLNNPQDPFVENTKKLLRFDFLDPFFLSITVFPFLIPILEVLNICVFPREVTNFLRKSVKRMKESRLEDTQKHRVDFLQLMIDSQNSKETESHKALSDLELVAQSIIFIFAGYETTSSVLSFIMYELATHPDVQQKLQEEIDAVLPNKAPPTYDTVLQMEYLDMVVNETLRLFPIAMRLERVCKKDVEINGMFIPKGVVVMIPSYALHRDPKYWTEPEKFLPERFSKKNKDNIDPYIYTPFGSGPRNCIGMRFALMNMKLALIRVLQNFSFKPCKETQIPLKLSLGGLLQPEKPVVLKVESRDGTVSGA

[6] = Stability in Beagle dog plasma assessed as parent compound remaining at 2 uM after 6 hrs by LC-MS/MS analysis relative to initial concentration; format: ADME, cell-free, Canis lupus familiaris; conditions: read-out: Stability
[7] = Stability in human plasma assessed as parent compound remaining at 2 uM after 6 hrs by LC-MS/MS analysis relative to initial concentration; format: ADME, cell-free; conditions: read-out: Stability
[8] = molecular target: CYP2C19 (Homo sapiens, UniProt P33261); assay: Inhibition of CYP2C19 in human liver microsomes using S-mephenytoin as substrate assessed as residual activity at 5 uM after 20 mins by HPLC analysis; format: ADME; conditions: probe S-mephenytoin, read-out: Activity
Sequence of CYP2C19 (P33261 whole entry): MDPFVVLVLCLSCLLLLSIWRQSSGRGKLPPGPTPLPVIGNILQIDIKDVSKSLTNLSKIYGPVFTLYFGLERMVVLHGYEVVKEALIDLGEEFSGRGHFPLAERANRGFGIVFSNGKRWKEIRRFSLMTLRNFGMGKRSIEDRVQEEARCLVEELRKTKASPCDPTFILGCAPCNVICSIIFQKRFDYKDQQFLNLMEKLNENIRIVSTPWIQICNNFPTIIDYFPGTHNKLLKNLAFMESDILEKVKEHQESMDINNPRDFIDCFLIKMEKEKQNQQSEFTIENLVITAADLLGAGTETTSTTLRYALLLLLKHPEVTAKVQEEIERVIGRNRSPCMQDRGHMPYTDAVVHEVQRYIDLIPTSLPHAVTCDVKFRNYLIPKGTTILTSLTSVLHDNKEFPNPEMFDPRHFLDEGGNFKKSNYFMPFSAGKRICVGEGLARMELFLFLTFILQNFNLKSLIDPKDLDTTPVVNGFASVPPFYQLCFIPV

[9] = molecular target: T3, CYP2C8 (Homo sapiens, UniProt P10632); assay: Inhibition of CYP2C8 in human liver microsomes using amodiaquine as substrate assessed as residual activity at 5 uM after 20 mins by HPLC analysis; format: ADME; conditions: probe amodiaquine, read-out: Activity
T3 sequence (P10632 whole entry): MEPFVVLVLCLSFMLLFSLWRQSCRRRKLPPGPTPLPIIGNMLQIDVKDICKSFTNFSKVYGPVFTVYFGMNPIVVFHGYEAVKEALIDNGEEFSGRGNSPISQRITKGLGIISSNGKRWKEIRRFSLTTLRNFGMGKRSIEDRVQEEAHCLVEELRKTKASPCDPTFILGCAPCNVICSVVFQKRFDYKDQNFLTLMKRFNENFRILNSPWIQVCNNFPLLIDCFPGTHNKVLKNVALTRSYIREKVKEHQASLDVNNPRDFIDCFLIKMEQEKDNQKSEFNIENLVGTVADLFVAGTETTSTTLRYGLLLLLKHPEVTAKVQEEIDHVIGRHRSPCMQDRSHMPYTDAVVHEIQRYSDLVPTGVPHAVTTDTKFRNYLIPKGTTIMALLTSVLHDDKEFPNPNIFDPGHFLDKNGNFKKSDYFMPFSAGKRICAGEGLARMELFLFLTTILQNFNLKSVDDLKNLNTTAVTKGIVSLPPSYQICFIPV

[10] = Stability in cynomolgus monkey plasma assessed as parent compound remaining at 2 uM after 6 hrs by LC-MS/MS analysis relative to initial concentration; format: ADME, cell-free, Macaca fascicularis; conditions: read-out: Stability
[11] = molecular target: CYP2D6 (Homo sapiens, UniProt P10635); assay: Inhibition of CYP2D6 in human liver microsomes using dextromethorphan as substrate assessed as residual activity at 5 uM after 20 mins by HPLC analysis; format: ADME; conditions: probe dextromethorphan, read-out: Activity
Sequence of CYP2D6 (P10635 whole entry): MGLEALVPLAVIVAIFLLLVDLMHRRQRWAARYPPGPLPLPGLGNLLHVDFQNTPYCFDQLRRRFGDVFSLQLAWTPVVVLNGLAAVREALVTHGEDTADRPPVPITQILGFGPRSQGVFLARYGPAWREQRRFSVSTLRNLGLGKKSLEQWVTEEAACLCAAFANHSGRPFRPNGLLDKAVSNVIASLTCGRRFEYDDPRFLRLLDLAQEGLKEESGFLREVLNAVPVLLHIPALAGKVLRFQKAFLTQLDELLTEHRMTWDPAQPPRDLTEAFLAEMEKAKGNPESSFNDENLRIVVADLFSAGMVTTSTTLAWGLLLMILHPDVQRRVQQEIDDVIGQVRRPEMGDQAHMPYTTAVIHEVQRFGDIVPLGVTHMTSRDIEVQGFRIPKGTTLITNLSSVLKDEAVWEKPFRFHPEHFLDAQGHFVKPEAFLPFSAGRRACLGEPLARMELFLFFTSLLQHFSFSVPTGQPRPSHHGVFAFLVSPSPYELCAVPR

[12] = molecular target: CYP2C9 (Homo sapiens, UniProt P11712); assay: Inhibition of CYP2C9 in human liver microsomes using diclofenac as substrate assessed as residual activity at 5 uM after 20 mins by HPLC analysis; format: ADME; conditions: probe diclofenac, read-out: Activity
Sequence of CYP2C9 (P11712 whole entry): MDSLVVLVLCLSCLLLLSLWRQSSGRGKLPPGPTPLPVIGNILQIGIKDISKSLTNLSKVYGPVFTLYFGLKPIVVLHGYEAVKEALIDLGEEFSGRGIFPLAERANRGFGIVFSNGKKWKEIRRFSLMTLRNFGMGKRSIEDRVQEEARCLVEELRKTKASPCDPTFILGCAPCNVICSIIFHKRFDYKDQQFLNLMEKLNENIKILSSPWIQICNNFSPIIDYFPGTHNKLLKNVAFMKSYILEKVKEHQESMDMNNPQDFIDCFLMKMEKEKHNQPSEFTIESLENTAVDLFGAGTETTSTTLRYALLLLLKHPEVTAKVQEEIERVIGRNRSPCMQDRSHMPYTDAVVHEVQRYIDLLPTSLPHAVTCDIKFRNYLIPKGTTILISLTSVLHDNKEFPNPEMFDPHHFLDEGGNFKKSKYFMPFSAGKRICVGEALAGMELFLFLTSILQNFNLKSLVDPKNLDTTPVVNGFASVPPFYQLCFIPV

Compound | solubility at 20 h, 130 µM [1] [µM] | IC50 [2] [nM] | activity at 20 min, 5 µM [3] [%] | activity at 20 min, 5 µM [5] [%] | activity at 20 min, 5 µM [8] [%] | activity at 20 min, 5 µM [9] [%] | activity at 20 min, 5 µM [11] [%] | other results
N=C(N)NC(=O)OCc1cccc(N2CCN(C3CCOCC3)CC2)c1.O=C(O)C(O)C(O)C(=O)O | ≥ 100 | 110 |  |  |  |  |  | 
Cl.Cl.Cl.N=C(N)NC(=O)OCc1cccc(N2CCC(N3CCOCC3)CC2)c1 | ≥ 100 | 160 |  |  |  |  |  | 
Cc1c(COC(=O)NC(=N)N)cccc1-c1cnc(N2CCOCC2)nc1.O=C(O)C(O)C(O)C(=O)O | 34 | 410 |  |  |  |  |  | 
N=C(N)NC(=O)OCc1cccc(-c2cnc(N3CCOCC3)nc2)c1.O=C(O)C(O)C(O)C(=O)O | 8.3 | 47 | 96 | 109 | 102 | 83 | 93 | remaining at 6 h, 2 µM [4]: 105%; remaining at 6 h, 2 µM [6]: 98.3%; remaining at 6 h, 2 µM [7]: 101%; remaining at 6 h, 2 µM [10]: 103%
N=C(N)Nc1cccc(CCc2cnc(N3CCOCC3)nc2)c1 |  | > 10000 |  |  |  |  |  | 
N=C(N)NC(=O)OCc1cccc(N2CCN(c3cccnc3)CC2)c1F.O=C(O)C(O)C(O)C(=O)O | 31 |  | 94 | 61 | 96 | 99 | 96 | 
N=C(N)NC(=O)Cc1cccc(CCc2cnc(N3CCOCC3)nc2)c1 |  | 54 |  |  |  |  |  | 
N=C(N)NC(=O)OCc1ccc(F)c(-c2cnc(N3CCOCC3)nc2)c1F.N=C(N)NC(=O)OCc1ccc(F)c(-c2cnc(N3CCOCC3)nc2)c1F.O=C(O)C(O)C(O)C(=O)O | 17 | 77 |  |  |  |  |  | 
Cl.N=C(N)NC(=O)OCc1cccc(-c2cnc(N3CCOCC3)nc2)c1F | 7.5 | 9.2 |  |  |  |  |  | 
Cc1ncccc1OC1CN(c2cccc(COC(=O)NC(=N)N)c2F)C1.O=C(O)C(O)C(O)C(=O)O | ≥ 100 | 40 | 89 | 96 | 91 | 46 | 77 | 
CN(Cc1cccc(-c2cnc(N3CCOCC3)nc2)c1)C(=O)CN.O=C(O)C(O)C(O)C(=O)O | ≥ 100 | 31 |  |  |  |  |  | 
Cl.Cl.Cl.N=C(N)NC(=O)OCc1cccc(N2CCN(c3ccccn3)CC2)c1 | ≥ 100 | 140 |  |  |  |  |  | 
Cc1nc(N2CCOCC2)ncc1-c1cccc(COC(=O)NC(=N)N)c1F.O=C(O)C(O)C(O)C(=O)O | 90 | 400 |  |  |  |  |  | 
N=C(N)NCCc1cccc(CCc2cnc(N3CCOCC3)nc2)c1 |  | > 10000 |  |  |  |  |  | 
Cl.Cl.Cl.N=C(N)NC(=O)OCc1cccc(N2CCN(c3ccncc3)CC2)c1 | ≥ 100 | 13 | 86 | 80 | 91 | 25 | 13 | activity at 20 min, 5 µM [12]: 80%
N=C(N)Nc1ccc(CCc2cnc(N3CCOCC3)nc2)cc1 |  | 5100 |  |  |  |  |  | 
CN(Cc1cccc(-c2cnc(N3CCOCC3)nc2)c1)C(=O)NC(=N)N |  | 530 |  |  |  |  |  | 
N=C(N)NC(=O)OCc1cccc(N2CCC(Oc3cccnc3)CC2)c1F.O=C(O)C(O)C(O)C(=O)O | ≥ 100 | 45 | 93 | 32 | 96 | 61 | 11 | 
Cl.Cl.N=C(N)NC(=O)OCc1ccc(F)c(-c2cnc(N3CCOCC3)nc2)c1 | 68 | 99 |  |  |  |  |  | 
Cl.Cl.N=C(N)NC(=O)OCc1cccc(-c2cnc(N3CCOCC3)nc2)c1Cl | 8.2 | 600 |  |  |  |  |  | 
Cl.Cl.Cl.N=C(N)NC(=O)OCc1cccc(N2CCN(c3cccnc3)CC2)c1 | ≥ 100 | 31 | 55 | 64 | 99 | 92 | 68 | activity at 20 min, 5 µM [12]: 101%
N=C(N)NC(=O)OCc1cccc(N2CC(Oc3cccnc3)C2)c1F.N=C(N)NC(=O)OCc1cccc(N2CC(Oc3cccnc3)C2)c1F.O=C(O)C(O)C(O)C(=O)O | ≥ 100 | 24 | 84 | 56 | 66 | 78 | 16 | 
N=C(N)NC(=O)Cc1cccc(-c2cnc(N3CCOCC3)nc2)c1 |  | 56 |  |  |  |  |  | 
